Experimental data from PubChem BioAssay AID330 (DTP/NCI, 2004).
Values joined by “and” are separate entries in the source; they are usually repeats but may differ in a detail not shown here. Identical values can stand only once. Inconclusive results and toxic doses are left out.

Tested on: P388 leukemia ip, CD2F1 mice, survival T/C
Assay: NCI In Vivo Anticancer Drug Screen. Data for tumor model P388 Leukemia (intraperitoneal) in CD2F1 (CDF1) mice
Details: endpoint: median survival time, higher = longer survival
Procedure, shortened: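 Mice carrying the transplanted tumor received test compound or vehicle. Survival was recorded in each group, and the value is the treated-group measurement divided by that of the vehicle-treated control group.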

[1] = dose: 100.0 mg/kg/injection, schedule: Q01DX009 (ip), vehicle: saline with Tween-80
[2] = dose: 200.0 mg/kg/injection, schedule: Q01DX009 (ip), vehicle: saline with Tween-80
[3] = dose: 400.0 mg/kg/injection, schedule: Q01DX009 (ip), vehicle: saline with Tween-80
[4] = dose: 60.0 mg/kg/injection, schedule: Q01DX005 (ip), vehicle: saline with Tween-80
[5] = dose: 120.0 mg/kg/injection, schedule: Q01DX005 (ip), vehicle: saline with Tween-80
[6] = dose: 240.0 mg/kg/injection, schedule: Q01DX005 (ip), vehicle: saline with Tween-80
[7] = dose: 50.0 mg/kg/injection, schedule: Q01DX005 (ip), vehicle: saline with Tween-80
[8] = dose: 25.0 mg/kg/injection, schedule: Q01DX009 (ip), vehicle: other
[9] = dose: 50.0 mg/kg/injection, schedule: Q01DX009 (ip), vehicle: other
[10] = dose: 100.0 mg/kg/injection, schedule: Q01DX009 (ip), vehicle: other
[11] = dose: 200.0 mg/kg/injection, schedule: Q01DX009 (ip), vehicle: other
[12] = dose: 400.0 mg/kg/injection, schedule: Q01DX009 (ip), vehicle: other
[13] = dose: 50.0 mg/kg/injection, schedule: Q01DX009 (ip), vehicle: saline with Tween-80
[14] = dose: 50.0 mg/kg/injection, schedule: Q01DX005 (ip), vehicle: Klucel (hydroxypropylcellulose) (HPC)
[15] = dose: 100.0 mg/kg/injection, schedule: Q01DX005 (ip), vehicle: Klucel (hydroxypropylcellulose) (HPC)
[16] = dose: 200.0 mg/kg/injection, schedule: Q01DX005 (ip), vehicle: Klucel (hydroxypropylcellulose) (HPC)

SMILES: N#Cc1ccc(NN=O)nc1
- T/C (dose: 3.13 mg/kg/injection, schedule: Q01DX009 (ip), vehicle: water): 116 % of control and 123 % of control
- T/C (dose: 6.25 mg/kg/injection, schedule: Q01DX009 (ip), vehicle: water): 159 % of control
- T/C (dose: 12.5 mg/kg/injection, schedule: Q01DX009 (ip), vehicle: water): 151 % of control and 169 % of control
- T/C (dose: 25.0 mg/kg/injection, schedule: Q01DX009 (ip), vehicle: water): 194 % of control and 268 % of control

SMILES: O=[N+]([O-])c1cccc(/C=C/C=C/c2cccc(S(=O)(=O)F)c2)c1
- T/C [1]: 90 % of control
- T/C [2]: 86 % of control
- T/C [3]: 86 % of control

SMILES: CCC1CCCC[N+]1(C)[B-](F)(F)F (configuration not stated)
- T/C (dose: 50.0 mg/kg/injection, schedule: Q01DX005 (ip), vehicle: saline): 105 % of control
- T/C (dose: 100.0 mg/kg/injection, schedule: Q01DX005 (ip), vehicle: saline): 107 % of control

SMILES: COC12C=CC(CC1)C1C(=O)C=CC(=O)C12 (configuration not stated)
- T/C [4]: 105 % of control
- T/C [5]: 105 % of control
- T/C [6]: 112 % of control

SMILES: O=C(O)C(c1ccccc1)C1CCCCC1C1CCCCC1 (configuration not stated)
- T/C (dose: 12.5 mg/kg/injection, schedule: Q01DX005 (ip), vehicle: saline with Tween-80): 98 % of control
- T/C (dose: 25.0 mg/kg/injection, schedule: Q01DX005 (ip), vehicle: saline with Tween-80): 95 % of control
- T/C [7]: 100 % of control and 93 % of control

SMILES: CC(C)(C)OC(=O)NC(CC(=O)O)C(=O)O (configuration not stated)
- T/C (dose: 50.0 mg/kg/injection, schedule: Q01DX009 (ip), vehicle: saline): 111 % of control
- T/C (dose: 100.0 mg/kg/injection, schedule: Q01DX009 (ip), vehicle: saline): 93 % of control
- T/C (dose: 200.0 mg/kg/injection, schedule: Q01DX009 (ip), vehicle: saline): 104 % of control

SMILES: Cc1ccc(-c2nc(N)sc2N=Nc2ccc(Cl)cc2Cl)cc1
- T/C (dose: 60.0 mg/kg/injection, schedule: Q01DX005 (ip), vehicle: Klucel (hydroxypropylcellulose) (HPC)): 96 % of control
- T/C (dose: 120.0 mg/kg/injection, schedule: Q01DX005 (ip), vehicle: Klucel (hydroxypropylcellulose) (HPC)): 96 % of control
- T/C (dose: 240.0 mg/kg/injection, schedule: Q01DX005 (ip), vehicle: Klucel (hydroxypropylcellulose) (HPC)): 97 % of control

SMILES: O=NC=C1N(O)C=CN1O
- T/C [8]: 102 % of control
- T/C [9]: 101 % of control
- T/C [10]: 97 % of control
- T/C [11]: 102 % of control
- T/C [12]: 99 % of control

SMILES: Cc1ccc2c(Nc3ccc(NS(C)(=O)=O)cc3)c3ccccc3nc2c1C
- T/C (dose: 0.59 mg/kg/injection, schedule: Q01DX009 (ip), vehicle: saline with Tween-80): 110 % of control
- T/C (dose: 5.0 mg/kg/injection, schedule: Q01DX009 (ip), vehicle: other): 154 % of control
- T/C (dose: 10.0 mg/kg/injection, schedule: Q01DX009 (ip), vehicle: other): 165 % of control
- T/C (dose: 19.4 mg/kg/injection, schedule: Q04DX003 (ip), vehicle: water): 123 % of control
- T/C (dose: 20.0 mg/kg/injection, schedule: Q01DX009 (ip), vehicle: other): 197 % of control
- T/C (dose: 22.0 mg/kg/injection, schedule: Q04DX003 (ip), vehicle: saline with Tween-80): 154 % of control
- T/C (dose: 33.0 mg/kg/injection, schedule: Q04DX003 (ip), vehicle: saline with Tween-80): 168 % of control
- T/C (dose: 75.0 mg/kg/injection, schedule: Q04DX003 (ip), vehicle: saline with Tween-80): 195 % of control and 218 % of control
- T/C (dose: 90.0 mg/kg/injection, schedule: Q04DX003 (ip), vehicle: water): 155 % of control
- T/C (dose: 150.0 mg/kg/injection, schedule: Q04DX003 (ip), vehicle: saline with Tween-80): 254 % of control
- T/C (dose: 300.0 mg/kg/injection, schedule: Q04DX003 (ip), vehicle: saline with Tween-80): 86 % of control

SMILES: O=CC(CO)CC(C=O)n1cnc2c(=O)[nH]cnc21 (configuration not stated)
- T/C (dose: 150.0 mg/kg/injection, schedule: Q01DX005 (ip), vehicle: saline): 155 % of control and 158 % of control
- T/C (dose: 300.0 mg/kg/injection, schedule: Q01DX005 (ip), vehicle: saline): 165 % of control and 174 % of control

SMILES: O=C(Oc1ccc(NC(=O)c2cc3c(cc2Br)OCO3)cc1)c1ccccc1
- T/C [8]: 104 % of control
- T/C [9]: 103 % of control
- T/C [10]: 89 % of control
- T/C [11]: 97 % of control
- T/C [12]: 95 % of control

SMILES: COC(=O)CC(=O)C(C)SC (configuration not stated)
- T/C (dose: 25.0 mg/kg/injection, schedule: Q01DX009 (ip), vehicle: saline with Tween-80): 100 % of control
- T/C [13]: 109 % of control
- T/C [1]: 97 % of control

SMILES: COC1=CC(=O)C(C(C)=O)=C(C#N)C1=O
- T/C (dose: 100.0 mg/kg/injection, schedule: Q04DX002 (ip), vehicle: saline with Tween-80): 100 % of control
- T/C (dose: 200.0 mg/kg/injection, schedule: Q04DX002 (ip), vehicle: saline with Tween-80): 100 % of control
- T/C (dose: 400.0 mg/kg/injection, schedule: Q04DX002 (ip), vehicle: saline with Tween-80): 90 % of control

SMILES: CC=C(/C(=C/C)c1ccc(O)cc1)c1ccc(O)cc1
- T/C (dose: 66.0 mg/kg/injection, schedule: Q01DX009 (ip), vehicle: saline with Tween-80): 120 % of control
- T/C (dose: 100.0 mg/kg/injection, schedule: Q04DX003 (ip), vehicle: saline with Tween-80): 100 % of control
- T/C (dose: 200.0 mg/kg/injection, schedule: Q04DX003 (ip), vehicle: saline with Tween-80): 100 % of control
- T/C (dose: 400.0 mg/kg/injection, schedule: Q04DX003 (ip), vehicle: saline with Tween-80): 90 % of control

SMILES: CCCCN1C(=O)/C(=C/c2ccco2)SC1=S
- T/C [13]: 101 % of control
- T/C [1]: 104 % of control
- T/C [2]: 102 % of control

SMILES: O=c1[nH]cc(N=Cc2ccccc2F)c(=O)[nH]1
- T/C (dose: 50.0 mg/kg/injection, schedule: Q01DX009 (ip), vehicle: suspension in saline): 92 % of control
- T/C (dose: 100.0 mg/kg/injection, schedule: Q01DX009 (ip), vehicle: suspension in saline): 100 % of control
- T/C (dose: 200.0 mg/kg/injection, schedule: Q01DX009 (ip), vehicle: suspension in saline): 96 % of control

SMILES: Nc1nnc2nc(CC(=O)c3ccc(F)cc3)c(CC(=O)c3ccc(F)cc3)nn12
- T/C (dose: 60.0 mg/kg/injection, schedule: Q01DX005 (ip), vehicle: saline): 104 % of control
- T/C (dose: 120.0 mg/kg/injection, schedule: Q01DX005 (ip), vehicle: saline): 106 % of control
- T/C (dose: 240.0 mg/kg/injection, schedule: Q01DX005 (ip), vehicle: saline): 100 % of control

SMILES: Oc1ccc(O)c2c(O)c3ccccc3c(O)c12
- T/C [7]: 102 % of control
- T/C (dose: 100.0 mg/kg/injection, schedule: Q01DX005 (ip), vehicle: saline with Tween-80): 107 % of control
- T/C (dose: 200.0 mg/kg/injection, schedule: Q01DX005 (ip), vehicle: saline with Tween-80): 93 % of control

SMILES: C/C=C/C(C#N)O[Si](C)(C)C (configuration not stated)
- T/C (dose: 3.75 mg/kg/injection, schedule: Q01DX005 (ip), vehicle: saline): 97 % of control
- T/C (dose: 7.5 mg/kg/injection, schedule: Q01DX005 (ip), vehicle: saline): 113 % of control
- T/C (dose: 15.0 mg/kg/injection, schedule: Q01DX005 (ip), vehicle: saline): 99 % of control

SMILES: Nc1nc(N)c2nc(CCc3ccc(C(=O)NC(CCC(=O)O)C(=O)O)cc3)cnc2n1 (configuration not stated)
- T/C (dose: 1.5 mg/kg/injection, schedule: Q01DX009 (ip), vehicle: sodium bicarbonate): 171 % of control
- T/C (dose: 1.75 mg/kg/injection, schedule: Q01DX009 (ip), vehicle: sodium bicarbonate): 204 % of control
- T/C (dose: 2.0 mg/kg/injection, schedule: Q01DX009 (ip), vehicle: sodium bicarbonate): 214 % of control

SMILES: CCOC(=O)C1Cc2c(n(C3CCCCC3)c(=O)n(C)c2=O)OC1c1ccccc1 (configuration not stated)
- T/C [14]: 100 % of control
- T/C [15]: 96 % of control
- T/C [16]: 90 % of control

SMILES: CC(=O)N1OCCc2ccccc21
- T/C [4]: 100 % of control
- T/C [5]: 98 % of control
- T/C [6]: 98 % of control

SMILES: Cn1c2ccccc2c2[nH]c3ccccc3c(=O)c21
- T/C [14]: 108 % of control and 97 % of control
- T/C [15]: 95 % of control
- T/C [16]: 90 % of control and 96 % of control

SMILES: IP1c2ccccc2P2P(I)c3ccccc3P12 (configuration not stated)
- T/C [14]: 102 % of control
- T/C [15]: 108 % of control
- T/C [16]: 105 % of control

SMILES: O=C(CN1CCOCC1)Nc1cccc(C(F)(F)F)c1
- T/C [1]: 110 % of control
- T/C [2]: 100 % of control
- T/C [3]: 110 % of control
